The values below come from patent US20030134859A1 (SANKYO COMPANY, LIMITED, priority 2000, published 2003).

SMILES strings stand for the structures. Where two headings read alike, the source gives them in different places.

One test relates to Balb/c mice. The test can be described thus: Prevention of concanavalin A liver injury. Type of test: in vivo, mouse. Particulars: Mus musculus, po, 24 h, 10 mg/mL suspension at 10 mL/kg, 30 min prior to Con A, plasma 24 hr after Con A. Here is the method: Five (5) Balb/c mice (female, 6-8 weeks old) per group were used. Liver injury was elicited in the mouse by injection of concanavalin A (Con A) dissolved in saline (2.0 mg/mL) into the tail vein at a volume of 10 mL/kg of the solution (Hepatology, 21, 190-198 (1995)).
The test compounds were suspended in distilled water containing 0.5% CMC, at a concentration of 10 mg/mL. This suspended solution was orally administered to the mouse at a volume of 10 mL/kg, 30 min prior to injection of Con A (group A).
Apart from this group, distilled water containing 0.5% CMC powder, instead of the test compound, was orally administered in the second group of mice (group B). In the 3rd group, nothing was given to the mice (group C).
Twenty four (24) hr after the injection of Con A, blood was collected from the abdominal aorta of the mice and the plasma was isolated while mixing with heparin. Activities of glutamic acid oxaloacetic acid transaminase (AST) and glutamic acid pyruvic acid transaminase (ALT) in the plasma were determined according to the methods described by Nagakawa et al. (J. Pharmacol. Exp. Ther., 264, 496-500 (1993)). From the values obtained inhibitory rates of the test compound against AST and ALT levels which had been increased by injection of Con A, were obtained based on the following equation.
Inhibitory Rate(%)={1−[(A−C)/(B−C)]}×100
A: The average level of AST or ALT in the group A
B: The average level of AST or ALT in the group B
C: The average level of AST or ALT in the group C

The test system of a further test is TNF-α production. The test can be described thus: Inhibitory activity against cytokine (TNF-α) production in LPS-stimulated RAW264.7 cells. Type of test: cell-based, mouse. Particulars: Mus musculus, RAW264.7, 15 h, 1 μM test compound, LPS 10 ng/mL. Summed up:
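Mouse RAW264.7 macrophages (5,000 cells/well) stimulated with 10 ng/mL LPS (final) and treated with test compound at 1 μM final for 15 h at 37 °C. Supernatant mouse TNF-α measured by ELISA; % inhibition = 100−(A−B)/(C−B)×100, using unstimulated and LPS-only controls.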

For test [1], the system named is human colon cancer cells COL-2-JCK. The test can be described thus: Inhibition of colony forming activity in human colon cancer cells. Type of test: cell-based. Particulars: Homo sapiens, 240 h; 1 μM test compound; 10 days; sum of colony areas vs control; read-out: Inhibition Rate (%) against the colony forming activity. The method in brief: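 COL-2-JCK cells seeded at 300 cells/well and grown 10 days at 37 °C, 5% CO2 with compound at 1 μM final (0.1% DMSO). Colonies stained with crystal violet in formalin; inhibition % = (1 − treated/control colony area)×100.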

Setting [2] is: read-out: Preventing rate against liver injury, ALT (%).
The mark [3] stands for this setting: read-out: Preventing rate against liver injury, AST (%).

With `Cc1ccc(NC(=O)c2cc([N+](=O)[O-])ccc2Cl)cc1` [Example 1, N-(4-Methylphenyl)-(2-chloro-5-nitrophenyl)carboxamide], the inhibition in vivo at 10000 µg/mL, 100 mg/kg in the test on Balb/c mice (setting [2]) was found to be 40.1%; in the test with Balb/c mice (setting [3]), 19%.
Usually inhibition stands for the relative decrease from the control value, in per cent. With `O=C(Nc1ccc(-c2ccccc2)cc1)c1cc([N+](=O)[O-])ccc1Cl` [Example 2, N-(4-Phenylphenyl)-(2-chloro-5-nitrophenyl)carboxamide], the figures for the inhibition at 1 µM (in the test with TNF-α production; in test [1]) were 24.5% and 8%, respectively. Also, the inhibition in vivo at 10000 µg/mL, 100 mg/kg worked out at 64.5% with Balb/c mice (setting [2]) and 4.1% in the test with Balb/c mice (setting [3]).
In the test on TNF-α production, `O=C(Nc1ccc(-c2ccccn2)cc1)c1cc([N+](=O)[O-])ccc1Cl` [Example 8, N-[4-(2-Pyridyl)phenyl]-(2-chloro-5-nitrophenyl)carboxamide] yielded an inhibition at 1 µM of 18.9%. The results for the inhibition in vivo at 10000 µg/mL, 100 mg/kg in the test on Balb/c mice (setting [2]) and in the test with Balb/c mice (setting [3]) were 57% and 56%, respectively.
For `Cc1ccc2nc(-c3ccc(NC(=O)c4cc([N+](=O)[O-])ccc4Cl)cc3)sc2c1` [Example 10, N-[4-(6-Methylbenzothiazol-2-yl)phenyl]-(2-chloro-5-nitrophenyl)carboxamide], the inhibition in vivo at 10000 µg/mL, 100 mg/kg with Balb/c mice (setting [2]) turned out to be 55.9%; in the test on Balb/c mice (setting [3]), 49%.
On to `CCCCCc1ccc(NC(=O)c2cc([N+](=O)[O-])ccc2Cl)cc1` [Example 16, N-(4-Pentylphenyl)-(2-chloro-5-nitrophenyl)carboxamide], for which the inhibition at 1 µM in the test with TNF-α production turned out to be 19%; in test [1], 48%. Besides, the values for the inhibition in vivo at 10000 µg/mL, 100 mg/kg in the test with Balb/c mice (setting [2]) and with Balb/c mice (setting [3]) were 44.4% and 21.4%, respectively.
On to `N#Cc1ccc(NC(=O)c2cc([N+](=O)[O-])ccc2Cl)cc1` [Example 20, N-(4-Cyanophenyl)-(2-chloro-5-nitrophenyl)carboxamide], for which the figures for the inhibition in vivo at 10000 µg/mL, 100 mg/kg in the test with Balb/c mice (setting [2]) and in the test with Balb/c mice (setting [3]) were 67.2% and 77%, respectively. In test [1], the inhibition at 1 µM is 37%.
As to `O=C(Nc1nc(-c2ccccc2)cs1)c1cc([N+](=O)[O-])ccc1Cl` [Example 35, N-(4-Phenylthiazol-2-yl)-(2-chloro-5-nitrophenyl)carboxamide], in the test with Balb/c mice (setting [2]), the inhibition in vivo at 10000 µg/mL, 100 mg/kg came to 12.4%. The inhibition at 1 µM in test [1] worked out at 15%.
On to `O=C(Nc1nc(-c2cccnc2)cs1)c1cc([N+](=O)[O-])ccc1Cl` [Example 37, N-[4-(3-Pyridyl)thiazol-2-yl)-(2-chloro-5-nitrophenyl)carboxamide], for which the results for the inhibition at 1 µM (with TNF-α production; in test [1]) were 16% and 52%, respectively. Besides, in the test with Balb/c mice (setting [2]), the inhibition in vivo at 10000 µg/mL, 100 mg/kg was found to be 20.7%.
Turning to `COc1cnc(NS(=O)(=O)c2ccc(NC(=O)c3cc([N+](=O)[O-])ccc3Cl)cc2)nc1` [Example 105, N-[4-[(5-Methoxypyrimidin-2-yl)aminosulfonyl]phenyl]-(2-chloro-5-nitrophenyl)carboxamide], the inhibition in vivo at 10000 µg/mL, 100 mg/kg with Balb/c mice (setting [2]) was 22.4%; in the test on Balb/c mice (setting [3]), 27.5%.
In the case of `N=C(N)NS(=O)(=O)c1ccc(NC(=O)c2cc([N+](=O)[O-])ccc2Cl)cc1` [Example 106, N-[4-(Amidinoaminosulfonyl)phenyl]-(2-chloro-5-nitrophenyl)carboxamide], the inhibition in vivo at 10000 µg/mL, 100 mg/kg with Balb/c mice (setting [2]) turned out to be 114%; in the test with Balb/c mice (setting [3]) it was 106%.
The matching figures for `O=C(Nc1ccc(S(=O)(=O)Nc2cccnc2)cc1)c1cc([N+](=O)[O-])ccc1Cl` [Example 178]: 50.5% and 64.5%.
